Experimental data taken from PMC5847527, “Identification of a novel 2-oxindole fluorinated derivative as in vivo antitumor agent for prostate cancer acting via AMPK activation” (Scientific Reports, 2018).

Columns and labels:
DU145 cells = test: Cell viability by MTT assay, DU145; format: cell-based, human
Method: Figure 3 Comparison of the effect of 2-oxindole fluorinated derivatives on the proliferation of human prostate cancer cells. (A) Normal (PTN2 and RWPE-1) and cancer (PC3,DU145 and LNCaP) prostate cells were treated with different doses of the compounds for 24 hours and cell viability was monitored by MTT assay. […] (C) PC-3, DU145 and LNCaP cells were treated with 25 µM of compound 8c for different times. Values were normalized with the control and represent the mean ± SD of at least three independent experiments. *p < 0.05 and **p < 0.01 compared to control by the Student’s - test.
Human prostate cancer epithelial PC-3, DU145 and LNCaP and human prostate normal RWPE-1 cells were purchased from American Type Culture Collection (ATCC CRL-1435 CRL-1740 and CRL 11609 respectively) (Rockville, MD, USA). The human prostate normal PNT2 cell line was purchased to ECACC (European Collection of Cell cultures, Salisbury, SP4 0JG, UK). Cells were routinely grown in RPMI 1640 medium supplemented with 100 IU/ml penicillin G sodium, 100 µg/ml streptomycin sulfate, 0.25 µg/ml amphotericin B (Invitrogen, Paisley, UK) and 10% fetal calf serum. Cells were used at passages between 10–20. For treatment experiments, cells were plated and grown over night, the medium was then replaced with serum-free RPMI 1640 for 24 hours and then incubated with different doses of the compounds for the indicated times.
Cell viability was determined by 3-(4,5-dimethylthiazol-2-yl)-2,5-diphenyltetrazolium bromide (MTT) (Sigma-Aldrich) method. In brief, a total of 5000 cells/well were seeded into 12-well plate in a final volume of 1 mL. After treatments, 20 µl MTT solution (5 mg/ml in PBS) was added to the medium and cells were incubated at 37 °C for 4 h. Then, the supernatant was discarded and isopropanol was added to dissolve the formazan crystals. Treatments were carried out in triplicate. The optical density in each well was evaluated by measurement of absorbance at 490 and 650 nm using a microplate reader (ELX 800 Bio-Tek Intruments, INC). IC50 values were calculated using GraphPad Prism vs 6.0 (GraphPad Software, Inc, La Jolla, CA, USA). Cell viability was also determined by counting viable and dead cells by Trypan blue staining. Trypan blue positive and negative cells were counted using a Countess^TM automated cell counter (Invitrogen, Carlsbad, CA, USA). Results were expressed in relation to total number of cells counted.

HIF-1A = HIF-1A expression by Western blot in PC-3 and LNCaP cells; format: cell-based, human; details: 25 µM
Method: To further confirm the compound 8c-induced activation of AMPK, PC-3 and LNCaP cells were incubated with the compound for 1 h and 24 hours in the presence of the AMPK inhibitor Dorsomorphin. […] Accordingly, ACC phosphorylation was increased at 1 h and 24 h and prevented by Dorsomorphin in both cell lines. AMPK inhibits mTORC1 through phosphorylation of Raptor on two well-conserved serine residues (ser722 and ser792) inducing cell-cycle arrest in response to an energy stress. To further support the 8c-induced AMPK activation, we determined Raptor phosphorylation on Ser792 in prostate cells.
Figure 5 AMPK activation by compound 8c in prostate cancer cells. (A) PC-3 and LNCaP cells were treated with vehicle, 25 µM compound 8c, 25 µM compound 8c + 5 μM Dorsomorphin (8c + D) or 5 μM Dorsomorphin (D), for 1 hour or 24 hours and levels of the phosphorylated AMPK (pAMPK), phosphorylated ACC (pACC), phosphorylated Raptor (pRaptor) forms and HIF1α were determined by Western blot. Upper panel, representative Western blot of three different experiments. β-tubulin (β-Tub) serves as a loading control. […] (B) Cell viability monitored by MTT assay in PC-3 and LNCaP cells treated with vehicle, 25 µM and 50 μM compound 8c alone or in the presence of 5 μM Dorsomorphin or transfected with control siRNA (siC) or α1AMPK-selective siRNA (siAMPK). […]

Q: How did the “inhibitory efficacy on cells viability at 50 μM” value (DU145 cells; DU145, 50 μM) turn out when `O=C1Nc2ccccc2C1(F)Cc1ccc(-c2ccccc2)o1` (stereo not drawn) [Compound 8c, 3-fluoro-3-((5-phenylfuran-2-yl)methyl)indolin-2-one] was run?
A: 88%

Q: What about the IC50 (DU145 cells; Homo sapiens, DU-145, DU145, MTT, 24 hours) of the same molecule?
A: 19 µM

Q: And the “expression of HIF-1A” value (HIF-1A)?
A: expression of HIF-1A was decreased
